Measured values as given in US20200375691A1, “PERACETIC ACID VAPOR STERILIZATION SYSTEM” (Medivators Inc., priority 2018, published 2020).

Assays:
[1] = test system: biological indicators (BIs); assay: Heated 90 cm bubbler runs, biological indicators in beakers, Tyvek and process challenge devices; assay type: cell-based
Experimental: In this example embodiment of bubbler 430 and system 420, the Bubbler System was modified to accept a 50 mm outside diameter by 90 cm long glass tube (5 mm wall thickness) attached to a 417-liter REVOX system. During all experiments, 250 mL of REVOX PA liquid was measured by graduated cylinder and poured into the 90 cm Bubbler. The Bubbler System was connected to the 417-liter REVOX sterilization chamber referred to as an improved bubbler vessel configuration. Air was drawn into bubbler 430 using only the force of the vacuum within sterilization chamber. A simple on-off valve was used to control the flow of air through the bubbler, allowing for “blocks” to be created in a similar manner to a normal REVOX cycle. In several cases a flow meter and/or infrared vapor detector was used to monitor the output of the Bubbler. In all cases, unused functions of the modified Revox Sterilization chamber/system were turned off (e.g. Dehumidification Hold was always set to 0) or were disabled (e.g. scope flow valve power was physically unplugged).
(§1) An assortment of process challenge devices (PCDs) were procured as a rough gauge to see what modes of sterilization are possible with the current bubbler 430 setup. These devices included simple Tyvek bags containing BIs, a syringe based PCD which contained a BI, a HF2000 Hemofilter cut to allow a BI to be inserted into the fiber mesh, and an artificial bone matrix provided by the REVOX team. Additionally, an Olympus TJF160 duodenoscope was inoculated with 6-log of bacteria on the exterior surface and within the scope lumens and was exposed to a Bubbler cycle with no hookups. This scope was used to assess penetration of sterilant down fine lumens.
(§2) The difference between heated and non-heated bubbler systems is the resulting humidity present in the chamber during the sterilization cycles. The humidity level on Cycle 250, as an example, exceeded 100% relative humidity. Maximum humidity levels were recorded by visual observation. The importance of humidity was again shown in Cycle 251 where humidity levels never exceeded 60% while testing a rapid, multi block cycle. […] Cycle 252 was used to test the effect of a single block run with a longer period of hold. […] Cycle 253 tested the penetration of Bubbler created PAA vapor into the long lumens of an Olympus TJF-160 duodenoscope. The scope surface, elevator wire channel, air/water channel, and suction biopsy channel were each inoculated with 6-logs of Geobacillus stearothermophilus spores. No hookups were used to pass PAA vapor into the lumens.
Cycle 254 tested a single 15-minute contact time on BIs in the chamber and within a Tyvek pouch. With pump down and ventilation, the total run time was 22 minutes. […] Additionally, between 5 and 10 additional minutes could be cut out of the cycle to achieve the same results. This is based on the rate at which the chemical indicators bleach out within the chamber, which tends to happen less than 5 minutes after PAA exposure begins. Within this cycle as well, two different types of Cantel Medical PAA chemical indicators were used. No appreciable difference was observed between the two varieties of CIs. Cycles 255 and 256 provide insight into the utility of the large scale Bubbler technology. […] The results of the Hemofilter can be explained by the complexity of filter membrane and its massive surface area. More “blocks” or injections of PAA vapor are likely needed to saturate the filter membrane with PAA vapor. The bone matrix, however, is readily porous and should be easily sterilized under these conditions. […] It is hypothesized that the metal is causing a breakdown of the PAA vapor as it passes through the bone matrix.

[2] = test system: Geobacillus stearothermophilus; assay: Colonoscope sterilization in 60 liter stainless steel chamber; assay type: cell-based; conditions: colonoscope CFQ-160 L, bubbler 4 L/min, circulation approximately 12 L/min, 60 minutes, 6-7 log inoculum
Experimental: A 60 liter stainless steel chamber was used to determine the effect of chamber size on the efficacy of the bubbler system when the chamber size and material were changed. The flow rate used was 4 L/min for a bubbler and approximately 12 L/min for circulation and the sterilization time was for 60 minutes. Twenty-two inoculated surfaces were studied with the colonoscope (CFQ-160 L). Each scope was inoculated on both the exterior and interior of the lumens with Geobacillus stearothermophilus suspended in serum or saline solution at a target concentration of microorganisms of 6-7 log for each run.

[3] = limit that the residual is compared with; cited from earlier work
[4] = test system: Geobacillus stearothermophilus; assay: Sterilization of inoculated flexible endoscopes with PAA vapor from a one liter glass bubbler; assay type: cell-based; conditions: 6-7 log inoculum, chamber at room temperature
Description: A one liter glass bubbler as the vapor system was used to test three different flexible endoscopes to determine the efficacy of the system against microorganisms as a function of size and architecture of endoscope.
The three endoscope types were chosen to meet the three primary conditions of flexible endoscopes: • Long endoscope: XSIF-100 • Complex channel system scope: CFQ-160L • Basic/small scope: BF-P40 and BF-P30
Each scope was inoculated on both the exterior and interior of the lumens with Geobacillus stearothermophilus suspended in serum or saline solution at a target concentration of microorganisms of 6-7 log for each run. The scope was then sealed inside a double Tyvek bag with a hookup adaptor. Each flexible endoscope was evaluated for a total of 22 inoculated surfaces to achieve a greater than 95% confidence level.
The test conditions for each scope are described below: • For CF-Q160L endoscope: • a. Bubbler flow rate: 4000 mL/min • b. Circulation Flow Rate: 12000 mL/min • c. Contact Time: 60 min
For XSIF-100 endoscope: • a. Bubbler flow rate: […] • b. Circulation Flow Rate: 11000 mL/min • c. Contact Time: 15 min and 30 min
For BF-P40 and BF-P30 endoscopes: • a. Bubbler flow rate: 4000 mL/min • b. Circulation Flow Rate: 11000 mL/min • c. Contact Time: 30 min
The chamber for all the runs was at room temperature.

[5] = test system: Mesa brand biological indicator (BI); assay: System 220 bubbler flow through elevator wire channel, biological indicator kill; assay type: cell-based
Description: In this embodiment, vapor system 220 was substantially modified to allow PAA vapor to flow from the bubbler 231 into an endoscope's elevator wire channel 270. To generate flow, a duodenoscope was placed in a poly tray (no terminal packaging was used) and the elevator wire channel of the endoscope was connected to the flow path. The vacuum chamber 240 was evacuated to 20 torr (±5 torr) so as to create enough pressure differential to flow PAA vapor 232A without any additional mechanical assistance, such as a pump. The flow rate was estimated to be about 150 ml per minute. Potential system leaks were assessed by closing the On/Off valve of the bubbler, isolating the chamber in manual control mode, and holding for 5 minutes. Chamber leak rate was determined to be less than 0.5 torr per five minutes. Depending on the application and the size of the bubbler vessel, PAA flow rate was to be controlled via the needle valve. In this illustrated embodiment, needle valve 252 was in its maximum flow position during all experiments, indicating needle valve 252 was not needed. Flow of PAA vapor to the distal tip of the scope was assured by affixing a PAA chemical indicator (CI) 280. Additional CIs were placed throughout the chamber to monitor for the presence of residual PAA presence, but these were optional and not critical to the operation of system 220. […]

[6] = test system: Geobacillus stearothermophilus spores; assay: Heated bubbler Cycle 253, inoculated Olympus TJF-160 duodenoscope without hookups; assay type: cell-based; conditions: Cycle 253: contact time 1200, 3 inj, 6-logs of spores, no hookups
Description: as §1
as §2, with “The scope surface, elevator wire channel, air/water channel, and suction biopsy channel were each inoculated with 6-logs of Geobacillus stearothermophilus spores. No hookups were used to pass PAA vapor into the lumens.” left out

[7] = Evacuation of sterilant after sterilization: PAA in chamber and residuals on scope; conditions: after 30 minute ventilation
Description: To evacuate the sterilant out after the sterilization process, the experiment utilized three additional parts to the system: • 1. Circulating fan inside the chamber lid to generate turbulence to promote the evacuation process. • 2. Air pump at the outlet vent to help remove the sterilant out of the system. • 3. Medical air inlet to dilute the concentration of PAA for faster evacuating process.
The process included a flow of medical air in at 15 L/min (flow through both chamber and lumen of scope) and a flow of air out of the chamber (generated by the air pump) and a circulation flow inside the chamber (generated by the fan). The equivalent of flow through the chamber allowed the pressure inside the chamber to be closer to atmospheric pressure to reduce scope damage and allow easier design of the chamber.

[8] = Cycle 254: contact time 900 (15-minute), 1 inj, inj 5 torr
[9] = Cycle 255: contact time 1200, 3 inj, inj 5 torr
[10] = Cycle 256: contact time 3600, 2 inj, inj 1 torr

CC(=O)OO [PAA, peracetic acid]
BI Results: BIs in Beakers (negative = kill) ([1]; Cycle 250: contact time 1200, 3 inj, inj 5 torr, post inj 500 torr, humidity exceeded 100%): complete kill
BI Results: BIs in Beakers ([1]; Cycle 251: contact time 60, 20 inj, inj 5 torr, humidity never exceeded 60%): No kill
BI Results: BIs in Beakers ([1]; Cycle 252: contact time 1800, 1 inj, inj 5 torr, humidity exceeded 100%): Kill was achieved
BI Results: BIs in Beakers [1, 8]: sterilized
BI Results: BIs in Tyvek [1, 8]: sterilized
BI Results: BIs in Syringe PCD [1, 9]: able to kill
BI Results: Bone Marrow BI [1, 9]: not able to kill
BI Results: Hemofilter PCD BI [1, 9]: not able to kill
BI Results: Bone Marrow PCD [1, 10]: not able to kill
BI Results: Hemofilter PCD [1, 10]: not able to kill
BI Results: Syringe PCD [1, 10]: able to kill
survivors on 22 inoculated surfaces, scope and biological indicators [2]: no survivors
worst case residual toxicity [3]: 7050 mg of PAA per total device
Result: survivors on 22 inoculated surfaces ([4]; Bronchoscope BF-P40 and BF-P30, bubbler 4000 mL/min, circulation 11000 mL/min, contact 30 min): All 22 inoculated surfaces have no
Result: survivors on 22 inoculated surfaces ([4]; Colonoscope CFQ-160L, bubbler 4000 mL/min, circulation 12000 mL/min, contact 60 min): All 22 inoculated surfaces have no
Result: survivors on 22 inoculated surfaces ([4]; Enteroscope XSIF-100, bubbler 4000 mL, circulation 11000 mL/min, contact 15 min and 30 min): All 22 inoculated surfaces have no
BI Results ([5]; contact time 600 seconds (Manual 1, Manual 2), chamber 20 torr, BI in vessel along flow path): alive
biological indicators ([5]; scope flow time 30 minutes or greater): dead
Scope Exterior [6]: full kill
Scope Lumens [6]: 1 log reduction
residuals on the scope [7]: 30 mg of PAA
